Measured values published in patent US20050119272A1, “Use of phosphodiesterase antagonists to treat insulin resistance” (DiaMedica Inc., priority 2002, published 2005).

Legend:
[1] = system: cats; experiment: Development of insulin resistance in cats after intraportal muscarinic antagonists; assay type: in vivo, cat
Source text: To avoid the complexity of the reaction to hypoglycemia, the rapid insulin sensitivity test (RIST) was employed (Lautt et al., Can. J. Physiol. Pharmacol. 76:1080 (1998)) wherein a euglycemic clamp was used following the administration of insulin and the response was quantitated as the amount of glucose required to be infused over the test period in order to hold arterial blood glucose levels constant.

[2] = system: atropine-treated rats; experiment: Rapid insulin sensitivity test (RIST) in the atropine model of 75% HDIR in rats; assay type: in vivo, rat
Method: Male Sprague Dawley rats (250-300 g) were allowed free access to water and normal rodent food for 1 week prior to all studies. Rats were fasted for 8 hours overnight and fed for 2 hours before the start of study. Rats were anesthetized with pentobarbital-sodium (65 mg/ml, ip injection, 0.1 ml/100 g body weight). Animals were placed on a heated thermostatically controlled surgical table to maintain body temperature during surgery and the experimental procedure. An extra-corporeal arterial-venous shunt (the loop) was established between the right femoral artery and right femoral vein, according to a published, standard operating procedure developed in our laboratory (Xie et al., 1996). The loop allows for regular blood sampling of arterial blood throughout the experiment as well as infusion of intravenous drugs and monitoring of arterial blood pressure. […] A laparotomy was performed and an indwelling portal venous catheter was inserted using a portal vein puncture technique. The portal catheter was used to administer the phosphodiesterase inhibitor directly to the liver. […] At this point, blood samples (25 μl) were taken at regular intervals from the loop and analyzed for glucose concentration. […] Glucose levels were monitored every 2 minutes during and after the infusion of insulin. […]

SMILES: CN1CCN(CC(=O)N2c3ccccc3C(=O)Nc3cccnc32)CC1 [pirenzepine]
- dose achieving a similar degree of insulin resistance [1]: 10^−7 mmol/kg

SMILES: COc1ccccc1CNCCCCCCNCCCCCCCCNCCCCCCNCc1ccccc1OC [methoctramine]
- dose required to produce a full insulin resistance ([1]; administered into the portal vein): 10^−6 μmol/kg

SMILES: CCCOc1ccccc1-c1nc2nn[nH]c2c(=O)[nH]1 [zaprinast]
- RIST index ([2]; after zaprinast 0.1 mg/kg ipv, following atropine-induced 75% HDIR, n=8): 157.4 ± 6.1 mg/kg
- reversal of HDIR produced by atropine ([2]; zaprinast 0.1 mg/kg ipv, rats): able to reverse the HDIR produced by atropine
